From patent US20240245780A1, “PHARMACEUTICAL COMPOSITIONS CONTAINING STABLE AMORPHOUS SOLID SOLUTIONS AND DISPERSIONS” (Eastman Chemical Company, priority 2021, published 2024)
Read-outs that look alike come from different tables or passages of the source.

Key:
[1] = Solubility study of PSD in heated SAIB, HPLC; format: physicochemical
Description: Analysis of drugs was performed by HPLC. […] Solubility was determined in three replicates for each drug.
SAIB was heated to 150° C. (RFX, DST, DLT, CYS, ITZ, SRL, APT and CBZ) or 130° C. (TAC and APZ), followed by addition of a known amount of the drug to dissolve in 30 min. Approximately, 100 mg of each sample were transferred to a 100-mL volumetric flask, and volume was made up with the mobile phase to dissolve the drug. The amount of dissolved drug was determined by validated HPLC.

[2] = cited from earlier work
[3] = JECFA 1996, including pediatric populations; cited from earlier work
[4] = SAIB temperature 150° C., 30 min, three replicates

Row | Increase in Solubility Relative to Water [1] [x] | Solubility in SAIB [1, 4] | Compound | pKa [2] | other results
1 | – | insoluble | Cc1nc(Nc2ncc(C(=O)Nc3c(C)cccc3Cl)s2)cc(N2CCN(CCO)CC2)n1 [Dasatinib] | – | –
2 | – | 1.7 ± 0.4 mg/g | C[C@@H]1CCO[C@H]2Cn3cc(C(=O)NCc4ccc(F)cc4F)c(=O)c(O)c3C(=O)N12 [Dolutegravir] | 8 | –
3 | 55.7 | – | C[C@@H](O[C@H]1OCCN(Cc2n[nH]c(=O)[nH]2)[C@H]1c1ccc(F)cc1)c1cc(C(F)(F)F)cc(C(F)(F)F)c1 [Aprepitant] | 10 | –

Second part, the compound before the results:

Row | Compound | Increase in Solubility Relative to Water [1] [x] | Solubility in SAIB [1, 4] | pKa [2] | other results
4 | NC(=O)N1c2ccccc2C=Cc2ccccc21 [Carbamazepine] | 532.3 | 76.5 ± 4.0 mg/g | – | Solubility in SAIB (in words) ([1]; SAIB at 130 or 150° C.): high solubility; Solubility in SAIB ([1]; SAIB temperature 150° C., 30 min, three replicates, listed as CBZ): 76.5 ± 4.0 mg/g
5 | O=C1CCc2ccc(OCCCCN3CCN(c4cccc(Cl)c4Cl)CC3)cc2N1 [Aripiprazole] | – | – | – | Solubility in SAIB [1]: 21.6 ± 2.6 mg/g
6 | CO[C@H]1C[C@@H]2CC[C@@H](C)[C@@](O)(O2)C(=O)C(=O)N2CCCC[C@H]2C(=O)O[C@H]([C@H](C)C[C@@H]2CC[C@@H](O)[C@H](OC)C2)CC(=O)[C@H](C)/C=C(\C)[C@@H](O)[C@@H](OC)C(=O)[C@H](C)C[C@H](C)/C=C/C=C/C=C/1C [Sirolimus] | – | 1.9 ± 0.0 mg/g | 10 | –
7 | sucrose acetate isobutyrate [SAIB] | – | – | – | log P of SAIB [2]: 6; permanent acceptable daily intake [3]: up to 20 mg/kg body weight
8 | C=CC[C@@H]1/C=C(\C)C[C@H](C)C[C@H](OC)[C@H]2O[C@@](O)(C(=O)C(=O)N3CCCC[C@H]3C(=O)O[C@H](/C(C)=C/[C@@H]3CC[C@@H](O)[C@H](OC)C3)[C@H](C)[C@@H](O)CC1=O)[C@H](C)C[C@@H]2OC [Tacrolimus] | 9591.7 | – | 10 | Solubility in SAIB (in words) ([1]; SAIB at 130 or 150° C.): high solubility; Solubility in SAIB ([1]; SAIB temperature 130° C., 30 min, three replicates, listed as TAC): 115.1 ± 2.3 mg/g; Solubility in SAIB ([1]; SAIB temperature 130° C., 30 min, three replicates, listed as Tracolimus): 115.1 ± 2.3 mg/g
9 | CO[C@H]1/C=C/O[C@@]2(C)Oc3c(C)c(O)c4c(O)c(c5c(nc6cc(C)ccn65)c4c3C2=O)NC(=O)/C(C)=C\C=C\[C@H](C)[C@H](O)[C@@H](C)[C@@H](O)[C@@H](C)[C@H](OC(C)=O)[C@@H]1C [Rifaximin] | – | – | 7 | Solubility in SAIB (in words) [1]: high solubility
10 | CCC(C)n1ncn(-c2ccc(N3CCN(c4ccc(OCC5COC(Cn6cncn6)(c6ccc(Cl)cc6Cl)O5)cc4)CC3)cc2)c1=O (stereo not shown) [Itraconazole] | – | insoluble | – | –
